# Test results: US20080293699A1, “Inhibitors of thapsigargin-induced cell death” (priority 2007, published 2008)
# Experiments:
# Ire1 = Ire1 (Homo sapiens, UniProt O75460); test: Ire1 autophosphorylation in vitro kinase assay; format: biochemical; conditions: 32P-γ-ATP, up to 50 μM
# Experimental: (§1) Suppression of thapsigargin-induced phosphorylation of p38MAPK was also measured by a quantitative ELISA-methods, with IC50 for p38MAPK phosphorylation estimated at <5 μM. In contrast, thapsigargin-induced expression of CHOP, expression of ATF4, proteolytic processing of ATF6, phosphorylation of eIF2a (Ser 51), auto-phosphorylation of Ire1a or auto-phosphorylation of ASK1 were not inhibited directly by CID-2878746 at concentrations up to 50 μM tested by in vitro kinase assay using p32-γ-ATP substrate. […] Thapsigargin-induced reductions in phosphorylation of ASK1 at the serine 967 site in ASK1 transfected 293T cells are inhibited by compound 5962123 at concentrations of 50-100 μM, as determined by immunoblotting using anti-phospho-specific (ser 967) antibody, but thapsigargin-induced changes in phosphorylation of ASK1 at ser 83 and thr 845 are not modulated by compound 5962123 at concentrations as high as 100 μM in ASK1-transfected HEK293T cells.
# (§2) C-Jun and p38 MAPK work downstream of the Ire1 pathway (see FIG. 21), we tested whether one of our hit compounds (6239507) inhibits autophosphorylation of any of kinases in this Ire1-ASK1-JNK/p38 MAPK pathway. […] An Ire1 autophosphorylation assay was performed. […] Incorporation values of ^32P-γ-ATP were evaluated by a scintillation counter. […] Incorporation values of ^32P-γ-ATP were evaluated by a scintillation counter. […]
# ASK1 = target: T1, ASK1 (Homo sapiens, UniProt Q99683); test: ASK1-MKK6-p38 coupled in vitro kinase assay; format: biochemical
# T1 construct: expressed in transfected cells; host or cells: HEK293T
# T1 sequence (Q99683 1-1374): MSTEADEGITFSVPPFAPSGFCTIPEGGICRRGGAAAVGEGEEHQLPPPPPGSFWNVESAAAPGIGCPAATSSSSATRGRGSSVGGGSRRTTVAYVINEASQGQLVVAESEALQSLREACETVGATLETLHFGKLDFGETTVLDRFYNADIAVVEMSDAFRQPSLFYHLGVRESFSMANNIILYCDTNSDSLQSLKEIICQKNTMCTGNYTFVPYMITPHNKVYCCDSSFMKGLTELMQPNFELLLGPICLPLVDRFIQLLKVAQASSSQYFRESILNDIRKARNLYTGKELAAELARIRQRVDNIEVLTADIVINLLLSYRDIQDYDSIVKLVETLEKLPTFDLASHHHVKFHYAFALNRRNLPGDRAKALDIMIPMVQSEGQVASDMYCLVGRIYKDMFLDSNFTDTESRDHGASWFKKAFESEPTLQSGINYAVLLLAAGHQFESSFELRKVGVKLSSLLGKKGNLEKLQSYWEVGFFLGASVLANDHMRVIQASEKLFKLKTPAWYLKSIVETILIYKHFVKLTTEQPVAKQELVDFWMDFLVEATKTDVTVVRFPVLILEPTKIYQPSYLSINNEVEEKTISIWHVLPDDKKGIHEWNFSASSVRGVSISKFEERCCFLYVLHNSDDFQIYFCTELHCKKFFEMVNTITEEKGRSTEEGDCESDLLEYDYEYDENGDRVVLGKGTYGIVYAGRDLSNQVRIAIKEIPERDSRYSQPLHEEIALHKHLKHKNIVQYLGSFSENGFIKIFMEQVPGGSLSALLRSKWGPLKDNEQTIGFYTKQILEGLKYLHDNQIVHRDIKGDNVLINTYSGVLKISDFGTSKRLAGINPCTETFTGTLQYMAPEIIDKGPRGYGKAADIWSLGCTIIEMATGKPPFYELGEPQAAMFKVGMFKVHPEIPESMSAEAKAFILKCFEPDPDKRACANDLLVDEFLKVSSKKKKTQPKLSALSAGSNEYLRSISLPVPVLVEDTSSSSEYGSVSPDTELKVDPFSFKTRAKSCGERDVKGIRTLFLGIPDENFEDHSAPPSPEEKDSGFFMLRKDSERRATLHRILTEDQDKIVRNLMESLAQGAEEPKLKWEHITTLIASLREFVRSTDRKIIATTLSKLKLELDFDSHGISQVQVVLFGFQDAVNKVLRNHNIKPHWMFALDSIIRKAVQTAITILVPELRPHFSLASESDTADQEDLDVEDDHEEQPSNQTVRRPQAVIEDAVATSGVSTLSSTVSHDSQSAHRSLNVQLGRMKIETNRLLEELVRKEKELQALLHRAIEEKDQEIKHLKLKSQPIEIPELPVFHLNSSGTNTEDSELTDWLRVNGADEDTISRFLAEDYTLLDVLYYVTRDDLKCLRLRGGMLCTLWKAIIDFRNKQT
# Experimental: as §1, §2
# Sequence of Ire1 (O75460 19-977, species assumed): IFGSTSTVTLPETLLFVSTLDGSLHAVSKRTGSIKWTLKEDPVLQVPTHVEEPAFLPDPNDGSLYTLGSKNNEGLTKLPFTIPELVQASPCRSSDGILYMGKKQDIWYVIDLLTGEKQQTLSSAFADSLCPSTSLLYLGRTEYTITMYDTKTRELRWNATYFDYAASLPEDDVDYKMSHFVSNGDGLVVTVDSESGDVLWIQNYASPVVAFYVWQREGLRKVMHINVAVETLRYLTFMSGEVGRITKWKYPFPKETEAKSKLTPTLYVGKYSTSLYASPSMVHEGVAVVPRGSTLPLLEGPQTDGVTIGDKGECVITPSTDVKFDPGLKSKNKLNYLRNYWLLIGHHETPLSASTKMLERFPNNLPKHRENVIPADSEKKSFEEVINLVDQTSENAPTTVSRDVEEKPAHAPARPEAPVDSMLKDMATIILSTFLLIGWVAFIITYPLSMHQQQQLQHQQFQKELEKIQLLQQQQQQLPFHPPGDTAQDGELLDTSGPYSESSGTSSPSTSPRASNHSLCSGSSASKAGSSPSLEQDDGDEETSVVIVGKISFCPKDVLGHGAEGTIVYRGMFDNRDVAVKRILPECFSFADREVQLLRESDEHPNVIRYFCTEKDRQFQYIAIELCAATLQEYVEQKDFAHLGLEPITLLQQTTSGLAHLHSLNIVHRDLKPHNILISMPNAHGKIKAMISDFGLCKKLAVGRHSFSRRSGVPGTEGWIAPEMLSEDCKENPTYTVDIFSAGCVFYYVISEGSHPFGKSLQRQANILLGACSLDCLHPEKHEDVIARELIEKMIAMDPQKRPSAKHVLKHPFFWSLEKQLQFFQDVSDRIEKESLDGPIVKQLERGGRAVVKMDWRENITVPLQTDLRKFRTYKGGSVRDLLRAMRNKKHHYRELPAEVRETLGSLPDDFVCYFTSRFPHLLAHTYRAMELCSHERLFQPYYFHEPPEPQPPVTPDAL
Structure (SMILES),Ire1 auto-phosphorylation (Ire1; listed as CID-2878746),"Thapsigargin-induced activation of ASK1 in cells (ASK1; coupled assay with MKK6 and p38MAPK, ASK1 immunoprecipitated from compound-treated (100 μM) HEK293T cells)",Ire1 auto-phosphorylation (Ire1),Ask1's activity with respect to downstream kinases MKK6 and p38 MAPK (ASK1; kinases incubated with 50 μM compound in vitro)
"CCN(CC)c1ccc(C2Nc3ccccc3NC3=C2C(=O)CC(c2ccccc2)C3)cc1 (stereo not shown) [Compound 5962123, 6-(4-diethylaminophenyl)-9-phenyl-5,6,8,9,10,11-hexahydrobenzo[c][1,5]benzodiazepin-7-one]",not inhibited,failed to inhibit,,
COc1ccc(C2CC(=O)C3=C(C2)Nc2ccccc2NC3c2cccc(Oc3ccccc3)c2)cc1OC (stereo not shown) [Compound 6239507],,,does not modulate,does not modulate
